Test results as given in ChEMBL document CHEMBL1153715, “An antimicrobial guanidine-bearing sesterterpene from the cultured cyanobacterium Scytonema sp” (J Nat Prod, 2009).
≈ marks a conversion by molar mass, not a printed value.

Assays:
[1] = tested on: Mycobacterium tuberculosis; assay: Antitubercular activity against Mycobacterium tuberculosis H37Rv after 7 days by microplate alamar blue assay; format: functional; settings: 168 h
Bacillus anthracis = assay: Antibacterial activity against Bacillus anthracis after 18 hrs by broth microdilution method; format: functional
Staphylococcus aureus = assay: Antibacterial activity against Staphylococcus aureus by broth microdilution method; format: functional
Escherichia coli = assay: Antibacterial activity against Escherichia coli by broth microdilution method; format: functional
Candida albicans = assay: Antifungal activity against Candida albicans by broth microdilution method; format: functional
Vero = assay: Cytotoxicity against african green monkey Vero cells by cell Titer_Glo assay; format: cell-based; settings: Chlorocebus sabaeus

C=C1CC[C@@H]2[C@](C)(CC[C@H]3[C@@]2(C)CC[C@H]2C(C)(C)CC[C@@H](O)[C@@]23C)[C@H]1CNC(=N)N [SCYTOSCALAROL]
MIC [1]: 110 µM (≈ 45.7 µg/mL)
MIC (Bacillus anthracis): 6 µM (≈ 2.49 µg/mL)
MIC (Staphylococcus aureus): 2 µM (≈ 0.831 µg/mL)
MIC (Escherichia coli): 30 µM (≈ 12.5 µg/mL)
MIC (Candida albicans): 4 µM (≈ 1.66 µg/mL)
IC50 (Vero): 135 µM
